Square brackets hold non-standard residues; d marks the D form. Peptide text beside a SMILES is read from it.

The test system of assay [1] is opiate receptor. As to conditions: brain homogenates; cited from earlier work.
Assay [2] has as its system guinea pig ileum. The note with it: cited from earlier work.
In assay [3] the test system is mouse vas deferens. As to conditions: cited from earlier work.
Assay [4] relates to rats. The note with it: injection in the brain ventricle in rats; cited from earlier work.
Assay [5] relates to rats. Kind of assay: rat-tail flick method, intracerebroventricular injection. In kind it is in vivo. The note with it: for Mean % Change ± SEM: change in latency, drug minus baseline; for Mean Latency ± SEM, Drug / analgesic effect / pain threshold: rat-tail flick; for Mean Latency ± SEM, Drug: after drug; for analgesic effect / pain threshold: injected into the lateral brain ventricle. As to the method: In this test method, which is a standard test for analgesia, a light beam is focused on the tip of the rat's tail, and the pain threshold of the animal is measured by the latency of the rat to remove his tail from the noxious heat source. When tested by the rat-tail flick method by intracerebroventricular injection, according to the procedure of Belluzzi et al., Nature, 260, 625 (1976), the pentapeptide H-Tyr-Gly-Gly-Phe-d-Lys-OH produced the effects set forth in Table I.
*All drugs were dissolved in […]. of Ringer's solution and injected int
the lateral ventricle through permanently-indwelling cannulae.
(In general: Hot-plate and tail-flick tests time the reaction to a heat stimulus.)

Assay [6] deals with opiate receptors. Kind of assay: displacement of 3H-naloxone from binding sites in rat brain homogenates. Background: Loss of bound radioactivity is the signal in a displacement assay; it reports binding, not function.
Setting [7] is: dose 100 μg into the lateral ventricle.
The mark [8] stands for this setting: dose 10 μg into the lateral ventricle.

Turning to `CSCC[C@H](NC(=O)[C@H](Cc1ccccc1)NC(=O)CNC(=O)CNC(=O)[C@@H](N)Cc1ccc(O)cc1)C(=O)O` [Methionine-Enkephalin, H-Tyr-Gly-Gly-Phe-Met-OH], in assay [1], the “inhibition of stereospecific receptor binding of 3H-naloxone” value is “inhibit the stereospecific receptor binding”. For the same compound, the “block of electrically evoked contractions” value in assay [2] was “mimic the ability of morphine to block electrically evoked contractions”. The “block of electrically evoked contractions” value in assay [3] was “mimic the ability of morphine to block electrically evoked contractions”. In addition, the analgesia result in assay [4] is listed as “induce a profound analgesia that is fully reversible by naloxone”. Moreover, in assay [5] (setting [7]), the “Mean % Change ± SEM” value was determined as 37.2 ± 8.8% and the “Mean Latency ± SEM, Drug” value is listed as 5.19 ± 0.31.

Consider `CN1CC[C@]23c4c5ccc(O)c4O[C@H]2[C@@H](O)C=C[C@H]3[C@H]1C5.O=S(=O)(O)O` [Morphine Sulfate], for which, in assay [5] (setting [8]), the “Mean % Change ± SEM” value is 65.4 ± 9.1% and the “Mean Latency ± SEM, Drug” value was determined as 6.59 ± 0.73.

On to `NCCCC[C@@H](NC(=O)[C@H](Cc1ccccc1)NC(=O)CNC(=O)CNC(=O)[C@@H](N)Cc1ccc(O)cc1)C(=O)O` [H-Tyr-Gly-Gly-Phe-D-Lys-OH, L-Tyrosyl-Glycyl-Glycyl-L-Phenylalanyl-D-Lysine] (H-YGGF[dK]-OH), for which, in assay [5] (setting [7]), the “Mean % Change ± SEM” value turned out to be 78.97 ± 7.85% and the “Mean Latency ± SEM, Drug” value is 6.16 ± 0.06. The “analgesic effect / pain threshold” value in assay [5] is “produced an increase in pain threshold”. The “analgesic effect / pain threshold” value in assay [5] (listed as pentapeptide of Formula I) is listed as “exerts an analgesic effect”. Besides, in assay [6] (in vitro), the “binding to opiate receptors” value is “weak binding”. For the same compound, the “displacement of 3H-naloxone from binding sites” value in assay [6] (rat brain homogenates) is “capable of displacing 3h-naloxone”.

For the compound “H-Tyr-Gly-Gly-Phe-Leu-OH [leucine-enkephalin]”, the analgesia entry in assay [4] is reported as “induce a profound analgesia that is fully reversible by naloxone”.

Values taken from patent US4075190A, “Pentapeptide with morphine-like activity” (American Home Products Corporation, priority 1977, dated 1978).
